Source: patent US5686109A, “Antipyretic analgesic composition” (priority 1993, dated 1997)

Tested on: SD strain rats (pain threshold of right hind leg)
Assay: Pain Removing Effect (Randall-Selitto method, heat edema)
Assay type: in vivo, rat
Conditions: 2 h after administration, mean ± standard error, n=10 rats
Experimental: Test substances and doses:
IPA and IBP were respectively suspended in a 0.5% aqueous solution of methylcellulose (MC) to a concentration of 8 mg/ml. The test suspensions for groups 2 and 3 were prepared by mixing the IPA suspension and IBP suspension together in a proportion of 3:1 (group 2) or 1:3 (group 3). The doses used are shown below. Each suspension was orally administered at a volumetric dose of 5 ml/kg.
Group 1: IPA 40 mg/kg+IBP 0 mg/kg
Group 2: IPA 30 mg/kg+IBP 10 mg/kg
Group 3: IPA 10 mg/kg+IBP 30 mg/kg
Group 4: IPA 0 mg/kg +IBP 40 mg/kg
Six-week-old male SD strain rats (Nippon SLC) fasted 24 hours before experiment were used in groups of 10. They were grouped such that the four groups were uniform in mean body weight.
First, the pain threshold value before thermal stimulation was measured (0 hour value). Then, heat edema was caused on the right hind leg of the rat by immersing said leg in hot water (54° C.) just to the fibular ankle (boundary showing sudden change in hair density) for 12 seconds. Two hours later, the pain threshold of the right hind leg was measured (2 hours value), immediately followed by test substance administration. After the lapse of two further hours, the pain threshold of the right hind leg was measured (4 hours value).
The percent pain removal was calculated by the following formula: [formula]

| Structure (SMILES) | Pain removal (%) (IPA 40 mg/kg PO + IBP 0 mg/kg) | Pain removal (%) (IPA 0 mg/kg + IBP 40 mg/kg PO) |
| --- | --- | --- |
| Cc1c(C(C)C)c(=O)n(-c2ccccc2)n1C [IPA, 4-isopropyl-2,3-dimethyl-1-phenyl-3-pyrazolin-5-one] | 25.8 ± 15.9% |  |
| CC(C)Cc1ccc(C(C)C(=O)O)cc1 (centres unmarked) [IBP, 2-(4-isobutylphenyl)propionic acid] |  | 32.3 ± 7.5% |
